From PMC10096123, “14-Substituted Diquinothiazines as a New Group of Anticancer Agents” (Molecules, 2023) come the findings set out here.

Series [1] deals with HCT116, SH-SY5Y, A549, H1299 cell lines. Description: 72-h MTT viability assay, all cell lines used in the study (summary statements). Format: cell-based, human. Particulars: for anticancer activity (ranking within the series): HCT116 and SH-SY5Y, in words. The source says:
(§1) The IC50 for cell viability was described with a dose of the drug, with a 50% reduction in the whole population, when compared to the untreated controls. The obtained results allow for a comparison of different compounds, using the same or different targeted cell lines. Cell survival fractions (SF), followed by the MTT 72-h viability assay for the HCT116 and SH-5YSY cells, are presented in the Supplementary File (Figure S1).
(§2) For cytological studies, human cancer cell lines were chosen, with special emphasis on the colorectal, HCT116, and neuroblastoma SH-5YSY cell lines, as well as lung normal epithelial BEAS-2B and cancer H1299 and A549 cancer cell lines (all obtained from the ATTC collection; Manassas, VA, USA). The cells were harvested under the standard conditions in incubator (5% CO2, 37 °C and 60% humidity; Panasonic model MCO-19 AIC). Cells were cultured in T75 mL sterile bottles (Sartedt), using DMEM-F12 medium (Merck, Poznań, Poland) supplemented with 10% of Fetal Bovine Serum (EURx, Gdańsk, Poland). During the experimental procedure, each cell line wasn’t more than 60–80% confluenced, no older than maximal number of passages 30. For adherent cell passages, the enzyme trypsin working solution, prepared in sodium phosphate buffer saline (PBS, pH = 7.4; PAN-Biotech Gmbh, Aidenbach, Germany), was used. The tested compounds were prepared as […] stocks in 100% DMSO (Merck, Poznań, Poland), and were stored at −20 °C. Before use in cytological studies, the working solution of each compound was prepared directly in complete DMEM-F12 medium. A positive-control, anticancer drug, etoposide (Merck, Poznań, Poland), was dissolved and prepared as solutions with doses of 20, 10, 5, 2.5, 1.25, 0.63 µM (0 µM for control, untreated cells in DMEM-F12 without any tested compound additions), respectively.
HCT116 and SH-5YSY cells collected after trypsinization were counted under the Bürker’s chamber, and 2000 or 5000 cells were seeded on each well of the 96-well-format sterile plate (Sarstedt, Nümbrecht, Germany), in 100 µL of complete DMEM-F12 medium, respectively. Twenty-four hours before compound addition, the cells were monitored directly on plates; only well-attached cells were used for treatments with background controls (DMSO with final maximal concentration of 1%) and untreated controls. The normal lung (BEAS-2B) and cancer (H1299 and […]) cell lines were cultured and prepared for viability MTT assay in similar way. […] The absorption at 570 nm was measured directly using multiplate reader (Epoch, BioTek, Winooski, VT, USA). […]
(§3) Obtained absorbance was analyzed for proliferation and survival fraction (SF) assessments, where tested samples were compared to the untreated controls (100%). […]

Series [2] deals with SH-SY5Y cells. The series can be described thus: 72-h MTT viability assay, SH-SY5Y. Format: cell-based, human. Particulars: 72 h incubation, mean of 3 experiments +/-SD, no effect = viability (SF) similar to control, about 100%; for IC50: Homo sapiens, SH-SY5Y.
Source text: as §1, §2
(§4) HCT116 and SH-5YSY cells collected after trypsinization were counted under the Bürker’s chamber, and 2000 or 5000 cells were seeded on each well of the 96-well-format sterile plate (Sarstedt, Nümbrecht, Germany), in 100 µL of complete DMEM-F12 medium, respectively. Twenty-four hours before compound addition, the cells were monitored directly on plates; only well-attached cells were used for treatments with background controls (DMSO with final maximal concentration of 1%) and untreated controls. The normal lung (BEAS-2B) and cancer (H1299 and […]) cell lines were cultured and prepared for viability MTT assay in similar way. To treat wells, 100 µL of tested compounds in fresh medium were added at concentration range of 100, 50, 25, 12.5, 6.25, 3.13 µM (0 µM for control, untreated cells in DMEM-F12 without any tested compound additions). An etoposide as a positive control, as anticancer drug, was prepared in similar way. Followed by 72 h of incubation, the viability assay was performed according to the producer protocol (Promega, Madison, WI, USA), where the medium and compounds were removed and cells were washed with PBS solution. A yellow tetrazolium salt (3-(4,5-dimethylthiazol-2-yl)-2,5-diphenyltetrazolium bromide solution (0.5 mg/mL) in serum and phenol red-free DMEM (Merck, Poznań, Poland) was added to each well on plates at a volume of 50 µL for 2–3 h of darkness, at 37 °C incubation. The purple formazan crystals were produced only by the viable cells, containing NAD (P)H-dependent oxidoreductase enzymes, which reduce the MTT. The crystals were dissolved in acidic (0.04 M HCl) 2-propanolol solution (Merck, Poznań, Poland) after addition of 75 µL of dissolving mixture to each well on plates for 5–10 min in darkness and at room-temperature (RT) incubation. The absorption at 570 nm was measured directly using multiplate reader (Epoch, BioTek, Winooski, VT, USA). Each time, the biological experiments were repeated three times.
as §3

In series [3] the test system is BEAS-2B cells. The series can be described thus: 72-h MTT viability assay, normal lung epithelial BEAS-2B. The format is cell-based, human. The note with it: 72 h incubation, mean of 3 experiments +/-SD, no effect = viability (SF) similar to control, about 100%; for IC50: Homo sapiens, BEAS-2B.
Source text: as §1, §2, §4, §3

Series [4] concerns H1299 cells. Description: 72-h MTT viability assay, H1299. Format: cell-based, human. The note with it: 72 h incubation, mean of 3 experiments +/-SD.
Source text: as §1, §2, §4, §3

Series [5] deals with A549 cells. Description: 72-h MTT viability assay, A549. The note with it: Homo sapiens, A549, 72 h, 72 h incubation, mean of 3 experiments +/-SD. Format: cell-based, human.
Source text: as §1, §2, §4, §3

Series [6] deals with HCT116 cells. Description: 72-h MTT viability assay, HCT116. Format: cell-based, human. The note with it: Homo sapiens, HCT-116, 72 h, 72 h incubation, mean of 3 experiments +/-SD.
Source text: as §1, §2, §4, §3

Entries after “also recorded” stand apart in the source; their conditions may differ.

The compound `CSc1ccc(N2c3c(cnc4ccccc34)Sc3cnc4ccccc4c32)cc1` [Compound 3c, 14-(methylthiophenyl)diquinothiazine] returned a melting point of 262 to 263 °C. The “anticancer activity (ranking within the series)” value (shortened to “anticancer activity”) in series [1] is “strongest anticancer activity”. Also, the IC50 in series [1] (Homo sapiens, range over the cancer cell lines, read-out: IC50 values against all cell lines used in the study) lay in the range of 1.6 to 17.2 µM. The same compound had an IC50 in series [2] of 2.7 ± 0.21 µM. Moreover, in series [3], the “IC50 BEAS-2B” value was “low cytotoxicity” and the half-inhibitory concentration (IC50) came to 69 ± 4.89 µM. Further, the IC50 in series [4] was 1.6 ± 0.86 µM. For the same compound, in series [4] (Homo sapiens, NCI-H1299, 72 h), the half-inhibitory concentration (IC50) is 2.7 µM. For the same compound, the IC50 in series [5] came out at 17.2 ± 1.02 µM.
In turn, `CC(=O)NCCN1c2c(cnc3ccccc23)Sc2cnc3ccccc3c21` [Compound 5a, 14-acetylaminoethyldiquinothiazine] registered a melting point of 89 to 90 °C. The “anticancer activity” value in series [1] is on record as “lowest anticancer activity”. The compound also showed a half-maximal inhibitory concentration (IC50) in series [2] of 24.7 ± 5.44 µM. Besides, it took 108 ± 9.83 µM to reach half-maximal inhibition in series [3] (IC50). For the same compound, the concentration for half-maximal inhibition (IC50) in series [6] turned out to be 25.9 ± 4.87 µM. In addition, half-maximal inhibition in series [4] (Homo sapiens, NCI-H1299, 72 h) (IC50) required 26.2 ± 1.99 µM. The compound further showed a concentration for half-maximal inhibition (IC50) in series [5] of 71.1 ± 14.7 µM.
Consider `CC(=O)NCCCN1c2c(cnc3ccccc23)Sc2cnc3ccccc3c21` [Compound 5b, 14-acetylaminopropyldiquinothiazine], for which the melting point lay in the range of 171 to 172 °C. The compound also displayed an IC50 in series [2] of 21.4 ± 4.02 µM. In addition, the concentration for half-maximal inhibition (IC50) in series [3] was 86.9 ± 9.67 µM. Besides, half-maximal inhibition in series [6] (IC50) required 17.7 ± 1.53 µM. The compound further gave an IC50 in series [4] (Homo sapiens, NCI-H1299, 72 h) of 23.5 ± 1.97 µM. Moreover, in series [5], 56.5 ± 15.6 µM corresponded to half-maximal inhibition (IC50).
For `CC(=O)NCCCCN1c2c(cnc3ccccc23)Sc2cnc3ccccc3c21` [Compound 5c, 14-acetylaminobutyldiquinothiazine], the melting point is 68 to 69 °C. In series [1], the “anticancer activity” value is recorded as “lowest anticancer activity”. Further, the IC50 in series [2] worked out at 21.9 ± 4.31 µM. Besides, the “IC50 BEAS-2B” value in series [3] is recorded as “no effect”. This compound had an IC50 in series [6] of 26.5 ± 1.15 µM. This compound also yielded a half-maximal inhibitory concentration (IC50) in series [4] (Homo sapiens, NCI-H1299, 72 h) of 30.3 ± 1.57 µM. The same compound yielded an IC50 in series [5] of 49.3 ± 15.9 µM.
In the case of `CS(=O)(=O)NCCN1c2c(cnc3ccccc23)Sc2cnc3ccccc3c21` [Compound 6a, 14-methanesulfonylaminoethyldiquinothiazine], the melting point fell in the range of 229 to 230 °C. In addition, the “IC50 SH-SY5Y” value in series [2] is “inactive; also recorded: no effect”. In addition, in series [3], the “IC50 BEAS-2B” value is recorded as “no effect”. For the same compound, the IC50 in series [6] stood at 20.2 ± 1.01 µM. Also, half-maximal inhibition in series [4] (Homo sapiens, NCI-H1299, 72 h) (IC50) required 36.9 ± 6.06 µM. In series [5], the midpoint of inhibition, the IC50, lay at 65.4 ± 14.1 µM.
The compound `CS(=O)(=O)NCCCN1c2c(cnc3ccccc23)Sc2cnc3ccccc3c21` [Compound 6b, 14-methanesulfonylaminopropyldiquinothiazine] showed a melting point of 199 to 200 °C. For the same compound, in series [2], the “IC50 SH-SY5Y” value is “inactive; also recorded: no effect”. Moreover, in series [3], the “IC50 BEAS-2B” value is on record as “no effect”. Also, the IC50 in series [6] amounted to 15.6 ± 1.16 µM. The compound further gave an IC50 in series [4] (Homo sapiens, NCI-H1299, 72 h) of 25.9 ± 4.14 µM. Moreover, 45.2 ± 17.2 µM corresponded to half-maximal inhibition in series [5] (IC50).
`CS(=O)(=O)NCCCCN1c2c(cnc3ccccc23)Sc2cnc3ccccc3c21` [Compound 6c, 14-methanesulfonylaminobutyldiquinothiazine] yielded a melting point of 184 to 186 °C. In series [2], this compound showed an IC50 of 21.6 ± 7.64 µM. In addition, the “IC50 BEAS-2B” value in series [3] is “no effect”. For the same compound, half-maximal inhibition in series [6] (IC50) required 17.6 ± 1.85 µM. Also, inhibition in series [4] (Homo sapiens, NCI-H1299, 72 h) was half-maximal at 13.4 ± 1.68 µM (IC50). This compound also came in with a half-maximal inhibitory concentration (IC50) in series [5] of 36.9 ± 16.8 µM.
